Series [1] has as its system P. aeruginosa strain ATCC 27853. Nature of the series: Neutropenic thigh infection model in mice. As for the experimental part: Figure S6. AUC levels after IV and IT administration
1.4.8 In vivo thigh infection model with P. aeruginosa
Male, 6 weeks-old, CD -1 mice (Charles River, Netherlands) were rendered neutropenic by administration of 150 mg/kg and 100 mg/kg cyclophosphamide i.p. on day –4, –1 and +1, respectively. The P. aeruginosa strain ATCC 27853 was used. The inoculum was prepared as follows: on day –1 the P. aeruginosa strain was streaked out onto a blood agar plate and incubated at 37 °C.
Then one sing le colony was inoculated into MHB medium (diluted 1:2 in water) and incubated at 120 rpm and 37 °C. […]
PBS. Then they were adjusted to an OD of 1 and diluted 1:5000 in PBS. The inoculum was plated onto MHB agar plates in serial dilutions and incubated at 37 °C. Mice were grouped into the following (n=18 for each group): (1) baseline inoculum group, sacrificed 2 h post infection; (2) vehicle control group (receiving vehicle t= 2, 12, 24 and 36 h post infection as well as 20 mg/kg tramadol SC t= 0 and 24 h post infection); (3) tobramycin group I (8 mg/kg tobramycin IV at t= 2 and 24 h post infection); (4) tobramycin group II (1 mg/kg tobramycin IV at t= 2 and 24 h post infection); (5) 24 group (30 mg/kg 24 SC at t=2, 12, 24 and 36 h post infection); (6) 24 + tobramycin group (30 mg/kg 24 SC at t=2, 12, 24 and 36 h and tobramycin 1 mg/kg IV at t= 2 and 24 h post infection). On the day of infection (day 0), mice received 30 µL of the P. aeruginosa strain ATCC 27853 into each lateral thigh (inoculum:
1x10^5 cfu/mL). 48 h after infection, mice were euthanized, blood was removed from the heart, lung and thighs were aseptically removed. […]
homogenized in 0.9% NaCl-solution and plated onto MHB agar plates in duplicate in serial dilutions and incubated at 37 °C for 24 h. Blood, lung and thighs were also subjected to LC-MS/MS analysis.
Figure S8. Plasma and lung-tissue levels after the in vivo infection model.

Series [2] can be described thus: In vivo PK study, intratracheal (IT) and intravenous (IV). The conditions noted are these: for Tmax / CL/F / Vd/F / half-life: male, CD1, mouse; for Cl/F_obs / Vz/F_obs: […] IV. The procedure:
The enzymatic activity of the MLM
First, a calibration curve was prepared by […]
lavage fluid (BALF). Caffeine was used as
The in live part for the IV and IT PK studies were performed at CRO Saretius (UK). Groups of male CD1 […]
light/dark cycle with free access to food and water. Temperature and humidity were controlled according to U.K. HO regulations. On the day of the study, mice were briefly anesthetized with isoflurane before suspending the mouse by its upper incisors on a board held at an angle of approx.
45 degrees. Mice were then dosed intratracheally with the compound (24 or Tob) at the designated does formulated in ethanol/tyloxapol/glycerol/phosphate-buffered saline (PBS) [10:1:5:84] in a 1 mL/kg dosing volume up to a maximum of 30 µL per mouse. A laryngoscope was used to facilitate dosing. Animals were allowed to recover before replacing into their home cages. Terminal blood samples were then taken from groups of 3 mice at each of eight time points post-dose by cardiac puncture under CO2. Blood samples were placed in tubes on ice containing EDTA anticoagulant. After gentle mixing, samples were centrifuged (10,000 rpm x 3 min) and two 50 μL aliquots taken into fresh tubes that were immediately frozen on dry ice. Following blood sample collection, tracheas were exposed and a small incision made. An 18 Gauge plastic tube was then inserted through the incision into the trachea and tied in place. Aliquots of 0.8 mL of sterile saline were then infused into and then withdrawn from the lungs and the collected bronchoalveolar lavage (BALF) sample placed into a tube. This process was repeated two more times, and the samples from each mouse pooled. […]
frozen by immersion in liquid nitrogen.

Setting [3] is: epithelial lining fluid, iv, ELF Tmax.

Broadly, the Tmax is the time from dosing to the highest level. In general, CL/F refers to the apparent clearance, not corrected for the fraction that reaches the circulation. By Vd/F is commonly meant the apparent distribution volume after extravascular dosing. In general, half-life refers to the time in which the quantity being followed falls by half. Consider `CC(C)Oc1ccc(-c2ncc(CNc3ccnc(C(F)(F)F)c3)cn2)cc1Cl` [Compound 24], for which the “bacterial burden in the muscle compared to all other groups” value in series [1] (24 30 mg kg^−1 SC combined with low dose tobramycin 1 mg kg^−1 IV, 48 h, p < 0.001) was “significantly reduced bacterial burden”. Moreover, the “bacterial burden, secondary site of infection (lung), dissemination” value in series [1] (24 30 mg/kg SC combined with low tobramycin dose 1 mg/kg IV, 48 h) is “detectable inhibition of dissemination”; in series [1] (24 alone, 30 mg/kg SC, 48 h), “did not show a significant effect”. Further, the “CFU reduction over vehicle, primary infection site (thigh muscle)” value in series [1] (24 alone, 30 mg/kg SC at 2, 12, 24 and 36 h p.i., 48 h) was “did not exert significant effects”. Moreover, the Tmax in series [2] (setting [3]) turned out to be 40.2 ± 54 min; in series [2] (in vivo, inhaled or intranasal, ELF Tmax), 30 min; in series [2] (in vivo, inhaled or intranasal, Lung Tmax) it was 40.2 ± 18 min; in series [2] (in vivo, inhaled or intranasal, Tmax), 40.2 ± 18 min; in series [2] (lung tissue, iv, Lung Tmax) it was 4.8 min. The compound further gave a CL/F in series [2] (in vivo, inhaled or intranasal) of 0.8 ± 0.1 mL/min/kg. In series [2] (in vivo, inhaled or intranasal), the Vd/F came out at 0.06 L/kg. Also, the half-life in series [2] (in vivo, inhaled or intranasal) is 48.6 min; in series [2] (plasma, iv) it was 63 ± 6 min. The same compound had a Cl/F_obs in series [2] (plasma) of 0.21 ± 0.0 mL/min/kg. The Vz/F_obs in series [2] (plasma) is 0.02 ± 0.0 L/kg.

`NC[C@H]1O[C@H](O[C@H]2[C@H](O)[C@@H](O[C@H]3O[C@H](CO)[C@@H](O)[C@H](N)[C@H]3O)[C@H](N)C[C@@H]2N)[C@H](N)C[C@@H]1O` [Tobramycin, tobramycin]: the “terminal level in plasma and lung tissue (LC–MS/MS)” value in series [1] (48 h after infection) is “did not detect any”. Moreover, the “CFU reduction over vehicle, primary infection site (thigh muscle)” value in series [1] (tobramycin high, 8 mg/kg IV at 2 and 24 h p.i., 48 h) is “did not exert significant effects”; in series [1] (tobramycin low, 1 mg/kg IV at 2 and 24 h p.i., 48 h) it was “did not exert significant effects”. Moreover, the “bacterial burden, secondary site of infection (lung), dissemination” value was “did not reach significance” in series [1] (tobramycin high, 8 mg/kg IV, 48 h) and “did not show a significant effect” in series [1] (tobramycin low, 1 mg/kg IV, 48 h). The Tmax in series [2] (epithelial lining fluid, inhaled or intranasal, ELF Tmax, […] IT) worked out at 40.2 ± 18 min; in series [2] (setting [3]) it was 8.4 ± 6 min; in series [2] (lung, inhaled or intranasal, Lung Tmax, lung tissue, […] IT), 49.8 ± 18 min; in series [2] (plasma, inhaled or intranasal, Tmax, […] IT) it was 40.2 ± 18 min. Further, in series [2] (plasma, inhaled or intranasal), the apparent clearance CL/F turned out to be 15.2 ± 8 mL/min/kg. The Vd/F in series [2] (plasma, inhaled or intranasal) turned out to be 1.02 ± 0.4 L/kg. Besides, the half-life was 48.6 ± 12 min in series [2] (plasma, inhaled or intranasal) and 15 ± 6 min in series [2] (plasma, iv). Moreover, the Cl/F_obs in series [2] (plasma) is given as 27.99 ± 1.8 mL/min/kg. The same compound displayed a Vz/F_obs in series [2] (plasma) of 0.60 ± 0.2 L/kg.

The record behind these values is publication PMC9929129, “Towards Translation of PqsR Inverse Agonists: From In Vitro Efficacy Optimization to In Vivo Proof‐of‐Principle” (Advanced Science, 2023).
